Measured values reported in PubChem BioAssay AID179 (DTP/NCI, 2004).
Active and inactive are the calls of the source.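 The calls were made as follows: active = compounds giving half or more protection of infected cells from virus-caused growth loss, again on retest; inactive = the rest.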 Where a SMILES comes first, the peptide text is derived from it. Bridges are numbered along the chain shown (N, C = ends). [ ]: non-standard residue; d: D form. The star is where a group is joined. ξ: configuration not given here. X16 = O=C(/C=C/C=C/C=C/C=C/C=C/C(=O)*)NC1=C(O)CCC1=O; NMeA = CN[C@@H](C)C(=O)O; ξF = NC(Cc1ccccc1)C(=O)O; ξA = CC(N)C(=O)O

Tested on: CEM cells HIV-1 protection, formazan growth assay
Test: NCI AIDS Antiviral Assay
Settings: for IC50: measured here: growth of uninfected CEM cells
In short: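 Protection of CEM cells against HIV-1 measured as cell growth via soluble formazan read-out, with five concentrations tested on both infected and uninfected cells; failure to protect may reflect toxicity.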

SMILES: NC(=S)N1N=C2c3ccccc3CC[C@@H]2[C@@H]1c1ccccc1
- EC50: > 34.7 µM
- IC50: 6.03 µM

SMILES: Cc1cc(=O)n2c3c(c4c(cc13)c(CO)cc(=O)n4C)OC2
- outcome: inactive

SMILES: C[C@]12CC[C@H]3[C@@H](CCC4=CC(=O)[C@H](Br)C[C@@]43C)[C@@H]1CC[C@@H]2C(=O)CBr
- EC50: > 2 µM
- IC50: 0.316 µM

SMILES: CSCCCNC(=O)c1csc(-c2csc(CCNC(=O)CNC(=O)OC(C)(C)C)n2)n1
- EC50: > 501 µM
- IC50: 234 µM

SMILES: CO[C@@H]1C2=CC=CC=C[C@H]2n2c(=O)n(C)c(=O)n21
- EC50: > 525 µM
- IC50: 79.4 µM

SMILES: O=C(Cn1ccnc1[N+](=O)[O-])NCc1ccc(F)cc1
- EC50: > 178 µM
- IC50: > 178 µM

SMILES: Nc1nc2c(C(=O)c3cccs3)nnn2c2cccc(Cl)c12
- EC50: > 11.5 µM
- IC50: > 11.5 µM

SMILES: CC1NC(=O)[C@H](C)N(C)C(=O)[C@@H]2CCCN2C(=O)[C@@H](NC(=O)C(Cc2ccccc2)NC(=O)/C=C/C=C/C=C/C=C/C=C/C(=O)NC2=C(O)CCC2=O)COC(=O)[C@@H]2CCCN2C1=O (stereo not given in full) (X16-[ξF]SP[NMeA][ξA]P; ester 2-C)
- EC50: > 151 µM
- IC50: > 151 µM

SMILES: [Co].[NH-]CC[NH-].[NH-]CC[NH-].[NH-]CC[NH-]
- EC50: > 200 µM
- IC50: > 200 µM

SMILES: OCc1nnn(-c2ccccc2)c1CO
- EC50: > 200 µM
- IC50: > 200 µM

SMILES: Cc1nc2c3c(Cc4ccccc4)c(C)[nH]c3ncn2n1
- EC50: > 200 µM
- IC50: 117 µM

SMILES: Cc1nc2ccccc2c(=O)n1-c1ccccc1I
- EC50: > 100 µM
- IC50: > 100 µM

SMILES: CCCCNC(=S)Nc1nc(C(=O)NNC(=S)Nc2ccccc2)cs1
- EC50: 58.9 µM
- IC50: > 200 µM

SMILES: COc1cc2ccc(CC(N)=O)cc2cc1OC
- outcome: inactive

SMILES: CCOC(C)C(=O)OC[C@@H](C(=O)OC1C[C@@H]2[C@@H]3O[C@@H]3[C@H](C1)[N+]2(C)C)c1ccccc1 (stereo not given in full)
- EC50: > 200 µM
- IC50: > 200 µM

SMILES: O=C(O)Cc1cccc2c1Oc1ccccc1S2
- EC50: > 5620 µM
- IC50: 204 µM

SMILES: CC(O)CN1C(=O)c2cccc3cc([N+](=O)[O-])cc(c23)C1=O (stereo not given)
- EC50: > 200 µM
- IC50: 12 µM

SMILES: NCCCCN(CCCN)Cc1ccc2ccccc2c1
- EC50: > 200 µM
- IC50: 72.4 µM

SMILES: O=[N+]([O-])c1ccc2[nH]c(=S)n(/C=C(/c3ccc(Cl)cc3)S(=O)(=O)Cc3ccc(Cl)cc3)c2c1
- EC50: > 200 µM
- IC50: 102 µM

SMILES: C1COC(N2CC3CCC(CC3)C2)=N1
- EC50: > 200 µM
- IC50: > 200 µM

SMILES: COC1=NC2=CC(=O)c3c(c(O)c(C)c4c3C(=O)C(C)(O/C=C/C(OC)C(C)C(OC(C)=O)C(C)C(O)C(C)C(O)C(C)/C=C/C=C\1C)O4)C2=O (stereo not given)
- EC50: > 200 µM
- IC50: 33.1 µM

SMILES: CC1(C)CCc2cc3c(-c4ccccc4)cc(=O)oc3cc2O1
- outcome: inactive

SMILES: Cc1n(CC(=O)c2ccccc2)nc2sc(N)n[n+]12
- EC50: > 200 µM
- IC50: 123 µM

SMILES: CC(=O)c1ccc(NC(=O)COC(=O)c2cccc3c(=O)c4ccccc4[nH]c23)cc1
- outcome: inactive

SMILES: NCC(=O)Nc1ccc(S(=O)(=O)O)c2cc(S(=O)(=O)O)cc(S(=O)(=O)O)c12
- EC50: > 200 µM
- IC50: > 200 µM

SMILES: Cc1cnc2c(c1)C(=O)N(c1ccc([N+](=O)[O-])cc1)S2(=O)=O
- EC50: > 200 µM
- IC50: 17.4 µM

SMILES: CC(=O)NC(CCCCNC(=O)OCc1ccccc1)C(=O)NCc1ccccc1 (stereo not given)
- EC50: > 87.1 µM
- IC50: > 87.1 µM

SMILES: CCCCNC(=O)NNC(=O)c1cc(/C=C/c2cccc([N+](=O)[O-])c2)ncn1
- EC50: > 178 µM
- IC50: > 178 µM

SMILES: Cc1cc(C)c(-c2noc(-c3ccc(Cl)cc3)c2C2=NCCCN2)c(C)c1
- EC50: > 35.5 µM
- IC50: 24.5 µM

SMILES: COC(=O)C(Cc1ccccc1)N=Cc1c(O)c(O)c(C(C)C)c2cc(C)c(-c3c(C)cc4c(C(C)C)c(O)c(O)c(C=NC(Cc5ccccc5)C(=O)OC)c4c3O)c(O)c12 (stereo not given)
- EC50: > 11.7 µM
- IC50: > 11.7 µM

SMILES: Cc1nc2nn(Cc3ccccc3)cc2c(=O)o1
- EC50: > 1020 µM
- IC50: 57.5 µM

SMILES: CC(=O)NS(=O)(=O)c1ccc(N=Cc2ccc3c(c2)OCO3)cc1
- EC50: > 200 µM
- IC50: > 200 µM

SMILES: S=C1N(c2ccc(Cl)cc2)C2=C(N=Nc3cc(Cl)ccc3Cl)C(=Nc3ccccc3S2)N1c1ccccn1
- EC50: > 40.7 µM
- IC50: > 40.7 µM

SMILES: CNCc1cc(OC)ccc1-c1ccc(OC)c(OC)c1OC
- EC50: > 708 µM
- IC50: 105 µM

SMILES: O=C1NC(=S)N/C1=C\c1ccc(Sc2ccccc2C(=O)O)s1
- EC50: > 200 µM
- IC50: 110 µM

SMILES: CC(C)(CCCCC(C)(C)C1NC(=O)N1)C1NC(=O)N1
- EC50: > 200 µM
- IC50: > 200 µM

SMILES: COC(=O)C(C)NC(=O)c1ccccc1SC(=O)CCCC[n+]1ccccc1 (stereo not given)
- EC50: > 200 µM
- IC50: 2.4 µM

SMILES: c1ccc(CN(Cc2ccccn2)Cn2cccn2)nc1
- outcome: inactive

SMILES: NC(=O)c1csc(C2OC(COP(=O)(O)CP(=O)(O)OCC3OC(n4cnc5c(N)ncnc54)C(O)C3O)C(O)C2O)n1 (stereo not given)
- EC50: > 151 µM
- IC50: 91.2 µM

SMILES: CCOC(=O)CC1(C)c2nc(NC(C)=O)sc2Cc2sc(NC(C)=O)nc21
- EC50: > 200 µM
- IC50: 186 µM
